Measured values from paper PMC11134387, “Cancer-Stem-Cell Phenotype-Guided Discovery of a Microbiota-Inspired Synthetic Compound Targeting NPM1 for Leukemia” (JACS Au, 2024).

What was measured:
[1] = test system: HCT-116; assay: Cytotoxic effect in colon tumor cell line (MTT); conditions: for viability at 10 µM: HCT-116, read-out: Viability (%) HCT-116, @10 µM; for viability at 1 µM: HCT-116, read-out: Viability (%) HCT-116, @1 µM (footnote b)
Experimental: (§5) The cytotoxic effect was determined in breast (MCF-7) and colon (HCT-116) tumor cell lines using MTT assays.
(§6) Cells were seeded at 3 × 10^4 cells/mL in 96-well plates. The test compound was diluted in PBS. […] Viability was evaluated by MTT or WST-1 and dose/response curves were performed.

[2] = test system: HCT-116-derived colonospheres; assay: Formation of HCT-116-derived colonospheres (CSC tumorspheres); assay type: cell-based; conditions: for inhibition at 1 µM: @1 µM (footnote b)
Experimental: (§1) (BD Biosciences, Franklin Lakes, NJ, USA). All cells were maintained at 37 °C in a humidified incubator in an atmosphere of 5% CO2, and passaged every 2–3 days.
(§2) Additionally, they were cultured using RPMI media (Gibco/Life Technologies; Grand […]
(§3) Colonospheres, mamospheres and colony formation unit assays. 30.000 cells per well of MCF-7 cells (mamos pheres), HCT-116 cells (colonospheres) and CD34+ cells from patients (colony formation units) were seeded in serum free non- adherent medium or […]
(§4) MethoCult (Stem Cell). […]

[3] = test system: MCF-7-derived mamospheres; assay: Formation of MCF-7-derived mamospheres (CSC tumorspheres); assay type: cell-based; conditions: for inhibition at 10 µM / inhibition at 1 µM / inhibition at 5 µM: Homo sapiens, MCF7, read-out: Inhibition of tumorsphere formation (%) MCF-7; for inhibition at 1 µM: @1 µM (footnote b); for inhibition at 5 µM: @5 µM (footnote d); for Formation of tumorspheres (in words): MCF-7 mamospheres and HCT-116 colonospheres, noncytotoxic concentration
Experimental: as §1, §2, §3, §4

[4] = test system: MCF-7; assay: Cytotoxic effect in breast tumor cell line (MTT); conditions: for viability at 10 µM / viability at 1 µM / viability at 5 µM: Homo sapiens; for viability at 10 µM: MCF7, read-out: Viability (%) MCF-7, @10 µM; for viability at 1 µM: MCF7, read-out: Viability (%) MCF-7, @1 µM (footnote b); for viability at 5 µM: MCF7, read-out: Viability (%) MCF-7, @5 µM (footnote d)
Experimental: as §5, §6

[5] = Viability of non-tumor fibroblast cell line; assay type: cell-based; conditions: human, IMR90 non-tumor fibroblasts; for viability at 48 h, 1 µM: @1 µM (footnote b)
Experimental: The test compound was diluted in PBS.
Viability (%) tum orsphere form ation (%)

[6] = Plasma protein binding, equilibrium dialysis (RED); assay type: in vitro ADME; conditions: mouse serum
Experimental: Based on the encouraging results obtained in ex vivo models of AML, we further assessed the therapeutic potential of the new NPM1 inhibitor in vivo. Prior to the evaluation of the compound in an animal model of AML, in vivo pharmacokinetic studies were addressed. Following a single intraperitoneal administration of UCM-13369 at a dose of 25 mg/kg, levels of 200–600 μg/L were detected in mouse peripheral blood up to 6 h (Figure 6A). Plasma protein binding of the compound in mouse serum was measured using an equilibrium dialysis assay, indicating a bound fraction of 83 ± 1%. Next, the efficacy of the compound was evaluated in immunodeficient mice after injection of OCI-AML3-ffLuc-GFP cells as an AML animal model. […]
coupled to a liquid nanochromatography Easy nLC 1200 System (Thermo Scientific).
Once digested, mutant NPM1 C+ C-end sample w as injected into a EASY-Spray™ C18 column, and digestion peptides were separated by using a lineal phase gradi ent (A: 0.1% formic acid in water; B: 20% acetonitrile, 0.1% formic acid in water) for 120 min. Spectra were acquired in DDA m ode, analyzing the 10 higher intensity parent ions in each cycl e.
Proteome Discoverer (Thermo Scientific) was used to align the spectra with the C-end […]
Random exclusion of AIRs was set to 2%. […] Clusters were classifi ed according to H ADDOCK score and stru ctures w er e analyzed with UCSF ChimeraX).10 […]

[7] = Homo sapiens, HCT-116, @10 µM, read-out: Inhibition of tumorsphere formation (%) HCT-116
[8] = Homo sapiens, HCT-116, read-out: Inhibition of tumorsphere formation (%) HCT-116

COc1ccc2c(c1)C1C(=NO)N(CC3CC3)CC1C(C)(C)O2 (stereo not shown) [7b]
viability at 10 µM ([1]; Homo sapiens): 95 ± 2%
inhibition at 10 µM [2, 7]: 0%
inhibition at 10 µM ([3]; @10 µM): 0%
viability at 10 µM [4]: 96 ± 2%

COc1ccc2c(c1)[C@H](CN)[C@@H](C(=O)NCC1CC1)C(C)(C)O2 [11b]
viability at 10 µM ([1]; Homo sapiens): 94 ± 2%
inhibition at 10 µM [2, 7]: 0%
inhibition at 10 µM ([3]; @10 µM): 0%
viability at 10 µM [4]: 99 ± 1%

COc1ccc([C@@H]2Cc3[nH]c4ccccc4c3[C@H](CCNCC3CC3)[C@H]2N)cc1 [4a, 4-{2-[(Cyclopropylmethyl)amino]ethyl}-2-(4-methoxyphenyl)-2,3,4,9-tetrahydro-1H-carbazol-3-amine]
viability at 0.1 µM ([1]; Homo sapiens, HCT-116, read-out: Viability (%) HCT-116, @0.1 µM (footnote c)): 85 ± 2%
inhibition at 0.1 µM ([2]; Homo sapiens, HCT-116, @0.1 µM (footnote c), read-out: Inhibition of tumorsphere formation (%) HCT-116): 0%
inhibition at 1 µM [3]: 0%
viability at 1 µM [4]: 92 ± 7%

COc1ccc2c(c1)[C@@H](CN)[C@H](CNCC1CC1)C(C)(C)O2 [12a]
viability at 10 µM ([1]; Homo sapiens): 90 ± 4%
inhibition at 10 µM [2, 7]: 0%
inhibition at 10 µM ([3]; @10 µM): 0%
viability at 10 µM [4]: 90 ± 2%

COc1ccc([C@H]2CCN(CC3CC3)C[C@@H]2N)cc1 [2b]
viability at 10 µM ([1]; Homo sapiens): 94 ± 3%
inhibition at 10 µM [2, 7]: 0%
inhibition at 10 µM ([3]; @10 µM): 0%
viability at 10 µM [4]: 97 ± 3%

COc1ccc2c(c1)[C@H]1CN(CC3CC3)C[C@@H]1C(C)(C)O2 [8a]
viability at 10 µM ([1]; Homo sapiens): 94 ± 6%
inhibition at 10 µM [2, 7]: 0%
inhibition at 10 µM ([3]; @10 µM): 0%
viability at 10 µM [4]: 65 ± 1%

COc1ccc([C@@H]2CC(=O)N(CC3CC3)C[C@H]2N)cc1 [1a]
viability at 10 µM ([1]; Homo sapiens): 70 ± 2%
inhibition at 10 µM [2, 7]: 0%
inhibition at 10 µM ([3]; @10 µM): 0%
viability at 10 µM [4]: 91 ± 7%

COc1ccc2c(c1)[C@H](CN)[C@@H](CNCC1CC1)C(C)(C)O2 [12b]
viability at 10 µM ([1]; Homo sapiens): 92 ± 3%
inhibition at 10 µM [2, 7]: 0%
inhibition at 10 µM ([3]; @10 µM): 0%
viability at 10 µM [4]: 73 ± 3%

COc1ccc([C@@H]2C(CNCC3CC3)=C[C@H]3[C@@H](c4ccccc4OC3(C)C)[C@H]2N)cc1 [6a]
viability at 1 µM ([1]; Homo sapiens): 81 ± 6%
viability at 48 h, 1 µM [5]: 95 ± 5%
viability at 48 h, 5 µM [5]: 53 ± 12%
inhibition at 1 µM [2, 8]: 100%
inhibition at 5 µM [3]: 100%
Formation of tumorspheres (in words) [3]: completely inhibit
viability at 5 µM [4]: 94 ± 11%

COc1ccc([C@@H]2CCN(CC3CC3)C[C@H]2N)cc1 [2a]
viability at 10 µM ([1]; Homo sapiens): 90 ± 1%
inhibition at 10 µM [2, 7]: 0%
inhibition at 10 µM ([3]; @10 µM): 0%
viability at 10 µM [4]: 96 ± 3%

COc1ccc([C@H]2Oc3ccccc3[C@@H](CN)[C@@H]2C(=O)NCC2CC2)cc1 [10a]
viability at 10 µM ([1]; Homo sapiens): 61 ± 8%
melting point: 175 to 177 °C
inhibition at 10 µM [2, 7]: 2 ± 1%
inhibition at 10 µM ([3]; @10 µM): 4 ± 2%
viability at 10 µM [4]: 89 ± 6%

COc1ccc2c(c1)[C@H]1C(=O)N(CC3CC3)C[C@@H]1C(C)(C)O2 [9a]
viability at 10 µM ([1]; Homo sapiens): 94 ± 2%
inhibition at 10 µM [2, 7]: 0%
inhibition at 10 µM ([3]; @10 µM): 0%
viability at 10 µM [4]: 73 ± 5%

COc1ccc(C2C(CNCC3CC3)=Cc3nccnc3N2C)cc1 (stereo not shown) [13a]
viability at 10 µM ([1]; Homo sapiens): 85 ± 7%
inhibition at 10 µM [2, 7]: 0%
inhibition at 10 µM ([3]; @10 µM): 0%

CC(C)NCC(O)COc1cccc2ccccc12 (stereo not shown) [Propranolol, reference compound]
Plasma protein binding, bound fraction [6]: 86±2%

COc1ccc2c(c1)C1CN(CC3CC3)CC1C(C)(C)O2 (stereo not shown) [8b]
viability at 10 µM ([1]; Homo sapiens): 93 ± 2%
inhibition at 10 µM [2, 7]: 0%
inhibition at 10 µM ([3]; @10 µM): 0%
viability at 10 µM [4]: 98 ± 1%

COc1ccc2c(c1)C1C(=O)N(CC3CC3)CC1C(C)(C)O2 (stereo not shown) [9b]
viability at 10 µM ([1]; Homo sapiens): 90 ± 3%
inhibition at 10 µM [2, 7]: 0%
inhibition at 10 µM ([3]; @10 µM): 0%
viability at 10 µM [4]: 65 ± 2%

COc1ccc([C@H]2CCNC[C@@H]2NCC2CC2)cc1 [3b]
viability at 10 µM ([1]; Homo sapiens): 94 ± 3%
inhibition at 10 µM [2, 7]: 0%
inhibition at 10 µM ([3]; @10 µM): 0%
viability at 10 µM [4]: 95 ± 4%

COc1ccc([C@H]2C(CNCC3CC3)=C[C@@H]3[C@H](c4ccccc4O[C@H]3c3ccc(OC)cc3)[C@@H]2N)cc1 [5b]
viability at 1 µM ([1]; Homo sapiens): 94 ± 6%
viability at 48 h, 1 µM [5]: 98 ± 2%
viability at 48 h, 5 µM [5]: 28 ± 7%
inhibition at 1 µM [2, 8]: 100%
inhibition at 1 µM [3]: 100%
Formation of tumorspheres (in words) [3]: completely inhibit
viability at 1 µM [4]: 87 ± 1%

COc1ccc(C2CC(=O)N(CC3CC3)CC2N)cc1 (stereo not shown) [1b]
viability at 10 µM ([1]; Homo sapiens): 97 ± 2%
inhibition at 10 µM [2, 7]: 0%
inhibition at 10 µM ([3]; @10 µM): 0%
viability at 10 µM [4]: 80 ± 2%

COc1ccc([C@@H]2CCNC[C@H]2NCC2CC2)cc1 [3a]
viability at 10 µM ([1]; Homo sapiens): 95 ± 1%
inhibition at 10 µM [2, 7]: 0%
inhibition at 10 µM ([3]; @10 µM): 0%
viability at 10 µM [4]: 98 ± 2%

COc1ccc2c(c1)[C@H]1C(=NO)N(CC3CC3)C[C@@H]1C(C)(C)O2 [7a]
viability at 10 µM ([1]; Homo sapiens): 92 ± 1%
inhibition at 10 µM [2, 7]: 0%
inhibition at 10 µM ([3]; @10 µM): 0%
viability at 10 µM [4]: 98 ± 1%

COc1ccc([C@H]2C(CNCC3CC3)=C[C@@H]3[C@H](c4ccccc4OC3(C)C)[C@@H]2N)cc1 [6b]
viability at 1 µM ([1]; Homo sapiens): 78 ± 9%
viability at 48 h, 5 µM [5]: 57 ± 13%
inhibition at 1 µM [2, 8]: 100%
inhibition at 5 µM [3]: 100%
Formation of tumorspheres (in words) [3]: completely inhibit
viability at 5 µM [4]: 94 ± 5%

COc1ccc([C@@H]2Oc3ccccc3[C@H](CN)[C@H]2C(=O)NCC2CC2)cc1 [10b]
viability at 10 µM ([1]; Homo sapiens): 70 ± 1%
inhibition at 10 µM [2, 7]: 0%
inhibition at 10 µM ([3]; @10 µM): 0%
viability at 10 µM [4]: 94 ± 5%

COc1ccc(C2C(CNCC3CC3)=Cc3nccnc3N2C)cc1 (stereo not shown) [13b]
Viability (%) HCT-116 ([1]; @10 µM): 90 ± 3%
Inhibition of tumorsphere formation (%) HCT-116 ([2]; @10 µM): 0%
Inhibition of tumorsphere formation (%) MCF-7 ([3]; @10 µM): 0%
Viability (%) MCF-7 ([4]; @10 µM): 89 ± 6%

COc1ccc2c(c1)[C@@H](CN)[C@H](C(=O)NCC1CC1)C(C)(C)O2 [11a]
viability at 10 µM ([1]; Homo sapiens): 94 ± 2%
inhibition at 10 µM [2, 7]: 0%
inhibition at 10 µM ([3]; @10 µM): 0%
viability at 10 µM [4]: 92 ± 2%

COc1ccc([C@H]2Oc3ccccc3[C@H]3[C@@H](N)[C@H](c4ccc(OC)cc4)C(CNCC4CC4)=C[C@@H]32)cc1 [5a]
viability at 1 µM ([1]; Homo sapiens): 87 ± 1%
viability at 48 h, 1 µM [5]: 83 ± 6%
viability at 48 h, 5 µM [5]: 20 ± 5%
inhibition at 1 µM [2, 8]: 100%
inhibition at 1 µM [3]: 100%
Formation of tumorspheres (in words) [3]: completely inhibit
viability at 1 µM [4]: 99 ± 1%
